The source of these data is paper PMC4545913, “Dual EZH2 and EHMT2 histone methyltransferase inhibition increases biological efficacy in breast cancer cells” (Clinical Epigenetics, 2015).

Molecules are shown by their SMILES.

The term IC50 denotes the concentration that inhibits the measured activity by half.

Assay type in all cases: cell-based
One assay has as its system DB. Briefly: Lymphoma cell growth, cell counting following propidium iodide staining. The note with it: Homo sapiens, EZH2 Mutant Y646N, 48 h, PI negative cell count. How it is done: (§1) For clonogenic assays, cells were treated with compound for 48 h, media were removed and replaced with fresh media for a further 12 days to measure colony formation. For cell viability assays, lymphoma cells were plated at 20,000 cells in 200 μl per well in U-bottom 96 well plates in RPMI medium +20 % FCS. Cells were re-suspended 48 h later, diluted 10-fold in PBS + propidium iodide (PI) and the concentration of PI negative cells was counted using an Attune flow cytometer with autosampler. Breast cancer cells were seeded at a density of 10,000 cells/well in a sterile 96 clear-well plate with 150 μl of DMEM (+10 % FCS and 2 mM L-Glutamine). Each compound treatment was performed in triplicate for 72 h at concentrations of 100 nM and 1, 5, 10 and 50 μM in 100 μl of full-medium. After 72 h, 20 μl of MTT solution (3 mg of MTT Formazan, Sigma/1 ml PBS) was added to the medium and incubated for 4 h at 37 °C in a CO2 incubator. The MTT-product was solubilised with 100 μl DMSO, and for 1 h, incubated in the dark at room temperature. The optical density was read at 570 nm with PHERAstar.

A further assay deals with DOHH2. The assay is described as above. The settings on record: Homo sapiens, DOHH-2, EZH2 W.T., 48 h, PI negative cell count. As for the experimental part: as §1
The subject of the next assay is SC1. The assay is described as above. The note with it: Homo sapiens, SC-1, EZH2 W.T., 48 h, PI negative cell count. How it is done: as §1
Another assay relates to SUDLH8. Described as above. The settings on record: EZH2 W.T. (amplified), 48 h, PI negative cell count. How it is done: as §1
Another assay relates to WILL1. Described as above. The note with it: WILL-1, EZH2 W.T., 48 h, PI negative cell count. As for the experimental part: as §1
In the next assay the test system is WSU-FSCLL. Described as above. The settings on record: EZH2 W.T., 48 h, PI negative cell count. As for the experimental part:
as §1

The next assay deals with breast cancer cell lines. Description: MTT anti-proliferative effect on a small panel of breast cancer cell lines. The note with it: read-out: Anti-proliferative IC50 values, range over panel. How it is done: The anti-proliferative effect of HKMTI-1-005 on a small panel of breast cancer cell lines was determined, with IC50 values in the range 2–10 μM (Table 3). […] The breast cancer cell line BT-474, which is the cell line most sensitive to HKMTI-1-005 treatment, has the highest relative expression of EZH2, as detected by Western analysis (data not shown).
as §1, with “The MTT-product was solubilised with 100 μl DMSO, and for 1 h, incubated in the dark at room temperature.” left out

For assay [1], the system named is H3K27me3 and H3K9me3 at target genes. Description: Chromatin immunoprecipitation (ChIP-PCR) in MDA-MB-231 cells. The settings on record: MDA-MB-231, 2.5 μM, 24 h. The text has this: Fig. 3 Effects of hit compounds on RNA levels and histone marks. a Sybr green real-time PCR mRNA level measurement of EZH2 target genes and executing enzymes following a 48-h compound treatment at different concentrations of MDA-MB-231 cells. Measurements marked with an ‘*’ are below detection limit, most likely due to cell death. […] Error bars represent the mean ± SD of experiment performed in technical triplicate. b Sybr green real-time PCR measurement of the FBXO32 transcription start site and KRT17 promoter region following chromatin immunoprecipitation, using antibodies to the histone marks shown, of MDA-MB-231 cells treated with three selected compounds at 5 μM for 72 h. […] The fold difference to the untreated sample is shown. Each IP-value has been determined as the relative increase to the no-antibody control and then normalised to GAPDH levels
Fig. 4 Compound-induced upregulation of EZH2-repressed target genes. a Enrichment scores for differential expression of EZH2 targets on treatment with panel of compounds. […] Each IP-value has been determined as the relative increase to the no-antibody control and is shown as fold difference relative to the untreated control. d Western blot showing levels of modified histones, following a 48-h treatment with HKMTI-1-005 at different doses. […]

Turning to `COc1cc2nc(N3CCN(C)CC3)nc(NC3CCN(Cc4ccccc4)CC3)c2cc1OC` [HKMTI-1-005], the IC50 with DB is below 1000 nM; in the assay on DOHH2, 3.26 µM; in the assay with SC1, 3.71 µM; in the assay on SUDLH8, below 1000 nM; with WILL1, 5.6 µM; in the assay on WSU-FSCLL, 3.41 µM. In addition, in the assay with breast cancer cell lines, the IC50 is 2 to 10 µM. For the same molecule, in assay [1], the “H3K27me3 and H3K9me3 at the SPINK1 transcription start site (ChIP-PCR)” value is “reduction in both H3K27me3 and H3K9me3”.
